Laboratory results published in patent US8853190B2, “Steroids having increased water solubility and resistance against metabolism, and methods for their production” (Umecrine AB, priority 2006, dated 2014).

Assay: HPLC retention times (reverse phase) as a measure of hydrophilicity
Type: physicochemical
Conditions: reverse phase C18 3.5 μm 4.6×75 mm; 45° C.; flow 1.0 mL/min; isocratic 40:60 v/v H2O:MeOH; shorter retention times correspond to higher hydrophilicity
Experimental: HPLC Retention Times [min] for Compounds According to the Invention
HPLC Conditions: Waters's SYMMETRY® HPLC column system (C18 3.5 μm 4.6×75 mm); T: 45° C.; flow 1.0 mL/min; isocratic eluent conditions 40:60 v/v/H2O:MeOH. Injection volume: 100 μL.
Solvents used for eluent are of HPLC grade, water filtered through a Millipore apparatus; all solvents were filtered through a 0.45 μm Millipore filter and degassed by N2 stream prior use.
Since the analyses are carried in reverse phase, shorter retention times correspond to higher hydrophilicity.

Row | Compound | retention time [min]
1 | C#C[C@]1(O)C=C2CCC3C(CC[C@@]4(C)C3CC[C@@H]4C(C)=O)[C@@]2(C)CC1 (stereo partly drawn) [UC 2024, 3β-ethynyl, 3α-hydroxyl, Δ4-pregnen-20-one] | 14.0
2 | C#C[C@@]1(O)CC[C@@]2(C)[C@@H](CC[C@@H]3[C@@H]2CC[C@]2(C)[C@@H](/C(C)=N/O)CC[C@@H]32)C1 [UC 2026, 3β-ethynyl, 3α-hydroxyl, 5α-pregnan-20-one oxime] | 16.9
3 | C#C[C@@]1(O)CC[C@@]2(C)C(CC[C@@H]3[C@@H]2CC[C@]2(C)/C(=N\O)CC[C@@H]32)C1 (stereo partly drawn) [UC 2025, 3β-ethynyl, 3α-hydroxyl, androstan-17-one oxime] | 13.9
4 | CC(=O)[C@H]1CC[C@H]2[C@@H]3CC[C@H]4C[C@@H](O)CC[C@]4(C)[C@H]3CC[C@]12C [3β-5α-pregnan-20-one, reference compound] | 30.0
5 | CC(=O)[C@H]1CC[C@H]2[C@@H]3CC[C@@H]4C[C@@H](O)CC[C@]4(C)[C@H]3CC[C@]12C [3β-5β-pregnan-20-one, reference compound] | 24.4
6 | C#C[C@@]1(O)CC[C@@]2(C)[C@@H](CC[C@@H]3[C@@H]2CC[C@]2(C)C(=O)CC[C@@H]32)C1 [UC 2021, 3β-ethynyl, 3α-hydroxyl, androstan-17-one] | 7.8
